According to patent US9995734B2, “Human T cell line assay for evaluating the immunologic identity of glatiramer acetate preparations” (Mylan Inc., priority 2013, dated 2018):
Where “and” joins values, the source holds several entries; their conditions need not be identical. Equal values may be shown once.

Key:
Assay type in all cases: cell-based, human
Donor 3 GMA T-Cell Lines = experiment: ATP proliferation assay (CellTiter Glo), Donor 3 GMA T-cell lines, incl. reactivity to non-canonical GA peptides; details: T-cell line 165-H11G
Donor 3 COP T-Cell Lines = experiment: ATP proliferation assay (CellTiter Glo), Donor 3 COP T-cell lines, incl. reactivity to non-canonical GA peptides; details: for Non-Canonical Peptide Non-Reactivity: proliferation <2 times no antigen control
Donor 4 COP T-Cell Lines = experiment: ATP proliferation assay (CellTiter Glo), Donor 4 COP T-cell lines, incl. reactivity to non-canonical GA peptides; details: for Non-Canonical Peptide Non-Reactivity: proliferation <2 times no antigen control; for Proliferation (luminescent ATP assay), Mean: T-cell line 205-1F4, Day 71, autologous B-LCL

poly (Glu-Lys-Tyr; 6:3:1) [GLT 631]
Proliferation (luminescent ATP assay), Mean (Donor 3 GMA T-Cell Lines; 1 μg/mL antigen, Day 50 of culturing, No Antigen Value 1485): 2763 RLU | Proliferation (luminescent ATP assay), Mean (Donor 3 GMA T-Cell Lines; 1.25 μg/mL antigen, autologous B-LCL): 29 RLU | Proliferation (luminescent ATP assay), Mean (Donor 3 GMA T-Cell Lines; 2.5 μg/mL antigen, autologous B-LCL): 344 RLU | Proliferation (luminescent ATP assay), Mean (Donor 3 GMA T-Cell Lines; 3 μg/mL antigen, Day 50 of culturing, No Antigen Value 1485): 2875 RLU | Proliferation (luminescent ATP assay), Mean (Donor 3 GMA T-Cell Lines; 5 μg/mL antigen, autologous B-LCL): 448 RLU | Proliferation (luminescent ATP assay), Mean (Donor 3 GMA T-Cell Lines; 10 μg/mL antigen, Day 50 of culturing, No Antigen Value 1485): 3028 RLU | Proliferation (luminescent ATP assay), Mean (Donor 3 GMA T-Cell Lines; 10 μg/mL antigen, autologous B-LCL): 435 RLU | Proliferation (luminescent ATP assay), Mean (Donor 3 GMA T-Cell Lines; 30 μg/mL antigen, Day 50 of culturing, No Antigen Value 1485): 3093 RLU | Non-Canonical Peptide Non-Reactivity (Donor 3 COP T-Cell Lines; 165-B6C): GLT 631 | Non-Canonical Peptide Non-Reactivity (Donor 3 COP T-Cell Lines; 165-C4C): GLT 631 | Non-Canonical Peptide Non-Reactivity (Donor 3 COP T-Cell Lines; 165-C7C): GLT 631 | proliferation response to non-canonical peptides (Donor 3 COP T-Cell Lines; 165-E3C, separate experiment): did not react | Non-Canonical Peptide Non-Reactivity (Donor 3 COP T-Cell Lines; 165-F3C): GLT 631 | Non-Canonical Peptide Non-Reactivity (Donor 3 COP T-Cell Lines; 165-F6C): GLT 631 | Non-Canonical Peptide Non-Reactivity (Donor 3 COP T-Cell Lines; 165-U3C (so in the source)): GLT 631 | Nonreactive T-Cell Line (Donor 3 COP T-Cell Lines; Donor 3 COP lines, stimulation with the non-canonical GA peptide): 165-B6C (Donor 3) and 165-C4C (Donor 3) and 165-C7C (Donor 3) and 165-E3C (Donor 3) and 165-F3C (Donor 3) and 165-F6C (Donor 3) | Proliferation (luminescent ATP assay), Mean (Donor 3 COP T-Cell Lines; T-cell line 165-C4C, 1 μg/mL antigen, Day 66 of culture, 0 μg/mL 1881): 2465 | Proliferation (luminescent ATP assay), Mean (Donor 3 COP T-Cell Lines; T-cell line 165-C4C, 3 μg/mL antigen, Day 66 of culture, 0 μg/mL 1881): 2677 | Proliferation (luminescent ATP assay), Mean (Donor 3 COP T-Cell Lines; T-cell line 165-C4C, 10 μg/mL antigen, Day 66 of culture, 0 μg/mL 1881): 2939 | Proliferation (luminescent ATP assay), Mean (Donor 3 COP T-Cell Lines; T-cell line 165-C7C, 1.25 μg/mL antigen, autologous B-LCL): 273 RLU | Proliferation (luminescent ATP assay), Mean (Donor 3 COP T-Cell Lines; T-cell line 165-C7C, 2.5 μg/mL antigen, autologous B-LCL): 219 RLU | Proliferation (luminescent ATP assay), Mean (Donor 3 COP T-Cell Lines; T-cell line 165-C7C, 5 μg/mL antigen, autologous B-LCL): 273 RLU | Proliferation (luminescent ATP assay), Mean (Donor 3 COP T-Cell Lines; T-cell line 165-C7C, 10 μg/mL antigen, autologous B-LCL): 219 RLU | Proliferation (luminescent ATP assay), Mean (Donor 3 COP T-Cell Lines; T-cell line 165-F3C, 1 μg/mL antigen, Day 77 of culture, 0 μg/mL 1563): 2325 | Proliferation (luminescent ATP assay), Mean (Donor 3 COP T-Cell Lines; T-cell line 165-F3C, 3 μg/mL antigen, Day 77 of culture, 0 μg/mL 1563): 2557 | Proliferation (luminescent ATP assay), Mean (Donor 3 COP T-Cell Lines; T-cell line 165-F3C, 10 μg/mL antigen, Day 77 of culture, 0 μg/mL 1563): 2724 | Proliferation (luminescent ATP assay), Mean (Donor 3 COP T-Cell Lines; T-cell line 165-F6C, 1.25 μg/mL antigen, Day 76 of culture, No Antigen value 517): 501 | Proliferation (luminescent ATP assay), Mean (Donor 3 COP T-Cell Lines; T-cell line 165-F6C, 2.5 μg/mL antigen, Day 76 of culture, No Antigen value 517): 416 | Proliferation (luminescent ATP assay), Mean (Donor 3 COP T-Cell Lines; T-cell line 165-F6C, 5 μg/mL antigen, Day 76 of culture, No Antigen value 517): 482 | Proliferation (luminescent ATP assay), Mean (Donor 3 COP T-Cell Lines; T-cell line 165-F6C, 10 μg/mL antigen, Day 76 of culture, No Antigen value 517): 474 | Non-Canonical Peptide Non-Reactivity (Donor 4 COP T-Cell Lines; 205-1B4): GLT 631 | Non-Canonical Peptide Non-Reactivity (Donor 4 COP T-Cell Lines; 205-1C4): GLT 631 | Non-Canonical Peptide Non-Reactivity (Donor 4 COP T-Cell Lines; 205-1F4): GLT 631 | Non-Canonical Peptide Non-Reactivity (Donor 4 COP T-Cell Lines; 205-1H3): GLT 631 | Non-Canonical Peptide Non-Reactivity (Donor 4 COP T-Cell Lines; 205-1H5): GLT 631 | reactivity to non-canonical GA peptides (Donor 4 COP T-Cell Lines; 205-1H7, after seven stimulations, 0, 1, 10, 30 μg/mL): reactivity | Non-Canonical Peptide Reactivity (Donor 4 COP T-Cell Lines; 205-1H7, at least one proliferation value >=2 times no antigen control): GLT 631 | Non-Canonical Peptide Non-Reactivity (Donor 4 COP T-Cell Lines; 205-1H11): GLT 631 | Reactive T-Cell Line (Donor 4 COP T-Cell Lines; Donor 4 COP lines, at least a 50% increase in proliferation relative to a control after stimulation with the non-canonical GA peptide): 205-1H7 (Donor 4) | Nonreactive T-Cell Line (Donor 4 COP T-Cell Lines; Donor 4 COP lines, stimulation with the non-canonical GA peptide): 205-1B4 (Donor 4) and 205-1C4 (Donor 4) and 205-1F4 (Donor 4) and 205-1H3 (Donor 4) and 205-1H5 (Donor 4) and 205-1H11 (Donor 4) | Reactivity (proliferation), Mean (Donor 4 COP T-Cell Lines; T-cell line 205-1B4, 1 μg/mL antigen, No Antigen 830): 912 RLU | Reactivity (proliferation), Mean (Donor 4 COP T-Cell Lines; T-cell line 205-1B4, 3 μg/mL antigen, No Antigen 830): 1059 RLU | Reactivity (proliferation), Mean (Donor 4 COP T-Cell Lines; T-cell line 205-1B4, 10 μg/mL antigen, No Antigen 830): 1387 RLU | Reactivity (proliferation), Mean (Donor 4 COP T-Cell Lines; T-cell line 205-1B4, 30 μg/mL antigen, No Antigen 830): 1389 RLU | Reactivity (proliferation), Mean (Donor 4 COP T-Cell Lines; T-cell line 205-1C4, 1 μg/mL antigen, No Antigen 4464): 4559 RLU | Reactivity (proliferation), Mean (Donor 4 COP T-Cell Lines; T-cell line 205-1C4, 3 μg/mL antigen, No Antigen 4464): 4934 RLU | Reactivity (proliferation), Mean (Donor 4 COP T-Cell Lines; T-cell line 205-1C4, 10 μg/mL antigen, No Antigen 4464): 5616 RLU | Reactivity (proliferation), Mean (Donor 4 COP T-Cell Lines; T-cell line 205-1C4, 30 μg/mL antigen, No Antigen 4464): 5782 RLU | Proliferation (luminescent ATP assay), Mean (Donor 4 COP T-Cell Lines; 1 μg/mL antigen): 1938 | Proliferation (luminescent ATP assay), Mean (Donor 4 COP T-Cell Lines; 3 μg/mL antigen): 1863 | Proliferation (luminescent ATP assay), Mean (Donor 4 COP T-Cell Lines; 10 μg/mL antigen): 2504 | Reactivity (proliferation), Mean (Donor 4 COP T-Cell Lines; T-cell line 205-1H5, 1 μg/mL antigen, No Antigen 749): 710 RLU | Reactivity (proliferation), Mean (Donor 4 COP T-Cell Lines; T-cell line 205-1H5, 3 μg/mL antigen, No Antigen 749): 885 RLU | Reactivity (proliferation), Mean (Donor 4 COP T-Cell Lines; T-cell line 205-1H5, 10 μg/mL antigen, No Antigen 749): 1153 RLU | Reactivity (proliferation), Mean (Donor 4 COP T-Cell Lines; T-cell line 205-1H5, 30 μg/mL antigen, No Antigen 749): 1294 RLU
